# Assays:
# [1] = target: T1, Human HDAC11 (Homo sapiens, UniProt Q96DB2); assay: In vitro HDAC11 inhibition, fluorogenic peptide assay; assay type: biochemical; conditions: for IC50: read-out: IC50 (nM) of enzyme activity HDAC11
# T1 construct: GST (N); purchased BioMol SE-560
# T1 sequence (Q96DB2 1-347): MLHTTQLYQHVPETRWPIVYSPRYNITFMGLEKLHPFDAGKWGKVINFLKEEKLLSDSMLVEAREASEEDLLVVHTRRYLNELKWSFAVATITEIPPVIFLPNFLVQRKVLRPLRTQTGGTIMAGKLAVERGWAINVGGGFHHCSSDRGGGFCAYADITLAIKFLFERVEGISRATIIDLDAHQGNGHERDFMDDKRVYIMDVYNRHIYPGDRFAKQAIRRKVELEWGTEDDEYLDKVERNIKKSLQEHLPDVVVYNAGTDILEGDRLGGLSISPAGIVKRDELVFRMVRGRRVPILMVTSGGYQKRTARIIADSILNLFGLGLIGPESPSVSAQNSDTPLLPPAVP
# Protocol: All HDAC assays were performed using acetylated AMC-labeled peptide substrate: • Substrate for isoforms HDAC1, 2, 3, 4, 5, 6, 7, 9, 10, 11 and HeLa nuclear extract assays: Acetylated fluorogenic peptide from p53 residues 379-382 (RHKKAc) (BioMol. Cat. # KI-104). • Substrate for HDAC8 assays: Acetylated fluorogenic peptide from p53 residues 379-382 (RHKAcKAc) (BioMol. Cat. # KI-178).
# Enzymes: • HDAC1 assay: 75 nM Human HDAC1 (GenBank Accession No. NM_004964): Full length with C-terminal GST tag, MW=79.9 kDa, expressed by baculovirus expression system in Sf9 cells (BioMol. Cat. # SE-456). • HDAC2 assay: 5 nM Human HDAC2 (GenBank Accession No. Q92769): Full length with C-terminal His tag, MW=60 kDa, expressed by baculovirus expression system in Sf9 cells (BioMol. Cat. # SE-500). • HDAC3 assay: 2.3 nM Human HDAC3/NcoR2 (GenBank Accession No. NM_003883 for HDAC3, GenBank Accession No.NM_006312 for NcoR2): Complex of human HDAC3, full length with C-terminal His tag, MW=49.7 kDa, and human NCOR2, N-terminal GST tag, MW=39 kDa, co-expressed in baculovirus expression system (BioMol. Cat. # SE-507). • HDAC4 assay: 266 nM Human HDAC4 (GenBank Accession No. NM_006037): Amino acids 627-1085 with N-terminal GST tag, MW=75.2 kDa, expressed in baculovirus expression system (BioMol, Hamburg, Germany). • HDAC5 assay: 588 nM Human HDAC5 (GenBank Accession No. NM_001015053): Full length with Nterminal GST tag, MW=150 kDa, expressed by baculovirus expression system in Sf9 cells (BioMol, Hamburg, Germany). • HDAC6 assay: 13 nM Human HDAC6 (GenBank Accession No. BC069243): Full length with N-terminal GST tag, MW=159 kDa, expressed by baculovirus expression system in Sf9 cells (BioMol. Cat. # SE-508). • HDAC7 assay: 962 nM Human HDAC7 (GenBank Accession No. AY302468): Amino acids 518-end with N-terminal GST tag, MW=78 kDa, expressed in baculovirus expression system (BioMol, Hamburg, Germany). • HDAC8 assay: 119 nM Human HDAC8 (GenBank Accession No. NM018486): Full length, MW=42 kDa, expressed in an E. coli expression system (BioMol. […]
# The reactions were carried out in a 96-well microplate for fluorometry in a 50 μl reaction volume. […] The reaction was allowed to develop for 45 minutes at 30° C. with 5% CO2; then the fluorescent signal was measured with an excitation wavelength at 360 nm and an emission wavelength at 460 nm in a microplate-reading fluorometer (GeminiXS; Molecular Devices, Sunnyvale, Calif.). […] IC50 was calculated by fitting the experimental data to a dose-response curve. […]
# [2] = test system: BT474; assay: Cancer cell growth inhibition (CellTiter-Glo), BT474; assay type: cell-based; conditions: Homo sapiens, BT-474; Breast Cancer, BT474, 72 h treatment
# Protocol: (§1) Cell culture-based assays were used to evaluate the ability of compounds of the invention to inhibit cancer cell growth.
# (§2) Cells were obtained from the American Type Culture Collection (ATCC). Cells were cultured at 37° C. with 5% CO2 in the appropriate growth medium (see table below), and harvested respectively during the logarithmic growth period and counted with hemocytometer. The cell viability was examined by trypan blue exclusion. Cell concentrations were adjusted to 5.56×10^4 cells/ml with respective medium.
# (§3) Stock solutions of test compounds and positive drugs Doxorubicin (Zhejiang, Haizheng, China), Cisplatin (Nanjing Zhiyao, China) and Mitomycin (Zhejiang, Haizheng, China) were prepared in dimethyl sulphoxide (DMSO) or PBS at 20 mM.
# (§4) In order to determine the IC50 for each compound, experiments were carried out in 96-well plates and the cell lines seeded at a density of 5,000 cells/well. […] All treatments were performed in triplicate. 10 μl of drug solution was added to each well and incubated for 72 hours. At the end of the incubation, 100 μl of the CellTiter-Glo Reagent were added to each well and the contents were mixed for 2 munites on an orbital shaker to induce cell lysis. The plate was incubated at room temperature for 10 minutes to stabilize luminiscent signal, and luminiscent was recorded. […] In order to calculate IC50 values, dose-responsive curves were fitted using nonlinear regression model with a sigmoidal dose response.
# [3] = test system: RPMI-8226; assay: Cancer cell growth inhibition (CellTiter-Glo), RPMI-8226; assay type: cell-based, Human; conditions: Homo sapiens; Orthotopic Multiple Myeloma, RPMI-8226, 72 h treatment
# Protocol: as §1, §2, §3, §4
Selectivity against HDAC6 (IC50 HDACx/IC50 HDAC6) HDAC11 ([1]; IC50 HDAC11/IC50 HDAC6),IC50 [1] [nM],IC50 [2] [µM],IC50 [3] [µM],Structure (SMILES)
34,680,–,–,"COc1ccc(-c2cc(-c3ccccc3)[nH]c2C(=O)NCCCCCC(=O)NO)cc1 [Compound A, N-[6-(hydroxyamino)-6-oxohexyl]-3-(4-methoxyphenyl)-5-phenyl-1H-pyrrole-2-carboxamide, reference compound]"
–,–,2.71,0.7,"O=C(CCCCCNC(=O)c1[nH]c(-c2ccccc2)cc1-c1ccc(O)cc1)NO [Example 1, N-(6-(hydroxyamino)-6-oxohexyl)-3-(4-hydroxyphenyl)-5-phenyl-1H-pyrrole-2-carboxamide]"
–,–,3.49,4.47,"O=C(CCCCCNC(=O)c1[nH]c(-c2ccc(O)cc2)cc1-c1ccccc1)NO [Example 2, N-(6-(hydroxyamino)-6-oxohexyl)-5-(4-hydroxyphenyl)-3-phenyl-1H-pyrrole-2-carboxamide]"
–,18,0.66,6.2,"O=C(CCCCCNC(=O)c1[nH]c(-c2ccc(O)cc2)cc1-c1ccoc1)NO [Example 5, 3-(3-furyl)-N-(5-(hydroxycarbamoyl)pentyl)-5-(4-hydroxy-phenyl)-1H-pyrrole-2-carboxamide]"
–,55,1.02,4.8,"O=C(CCCCCNC(=O)c1[nH]c(-c2ccc(O)cc2)cc1-c1ccsc1)NO [Example 6, N-(5-(hydroxycarbamoyl)pentyl)-5-(4-hydroxyphenyl)-3-(3-thienyl)-1H-pyrrole-2-carboxamide]"

# Reference: US20150038545A1, “HYDROXYPHENYL PYRROLE COMPOUNDS CONTAINING AN HYDROXAMIC ACID AS HDAC INHIBITORS AND MEDICINAL APPLICATIONS THEREOF” (UNIVERSIDAD DEL PAÍS VASCO, priority 2011, published 2015)
